In brackets after ≈: the same amount, converted by molar mass. Bounds are passed on as bounds.

Settings in all cases: Homo sapiens
The subject of assay [1] is HeLa. Briefly: Cytotoxicity against HeLa cells. The assay is classed as functional.
The subject of assay [2] is HeLa. Briefly: Compound was evaluated for its inhibitory effect on the replication of encephalomyocarditis virus (EMCV) in HeLa cells. It is filed as functional, cell-based.
Assay [3] has as its system MT4. Briefly: Compound was evaluated for its inhibitory effect on the replication of HIV-1(IIIB) in MT-4 cells. The assay is classed as functional, cell-based.
Assay [4] concerns MT4. As to the kind of experiment: Cytotoxicity against MT-4 cells. It is filed as functional.
The subject of assay [5] is MT4. Briefly: Compound was evaluated for its inhibitory effect on the replication of HIV-2 (ROD) in MT-4 cells. The assay is classed as functional, cell-based.
In assay [6] the test system is HeLa. As to the kind of experiment: Compound was evaluated for its inhibitory effect on the replication of Coxsackie virus B3 (Cox. B3) in HeLa cells. The assay is classed as functional, cell-based.
The test system of assay [7] is HeLa. Briefly: Compound was evaluated for its inhibitory effect on the replication of vesicular stomatitis virus (VSV) in HeLa cells. It is filed as functional, cell-based.

For `Cc1cn(C2OC3(CO)COCC3C2O)c(=O)[nH]c1=O` (stereo unspecified), the figures for the CC50 in the assay on HeLa [1] and in the assay on MT4 [4] were 100 µg/mL (≈ 352 µM) and 0.54 µg/mL (≈ 1.9 µM), respectively. The EC50 with HeLa [2] is 100 µg/mL (≈ 352 µM); in the assay with MT4 [3], 95.8 µg/mL (≈ 337 µM); in the assay on MT4 [5] it was greater than 0.54 µg/mL; in the assay on HeLa [6] it was 100 µg/mL (≈ 352 µM); with HeLa [7], 100 µg/mL (≈ 352 µM).

For the compound `Cc1cn(C2CC3COCC3(CO)O2)c(=O)[nH]c1=O` (stereo unspecified), the CC50 with HeLa [1] is 4.11 µg/mL (≈ 15.3 µM); in the assay on MT4 [4], less than 0.8 µg/mL. In addition, the EC50 is greater than 4.11 µg/mL with HeLa [2]; greater than 100 µg/mL with MT4 [3]; greater than 100 µg/mL with MT4 [5]; greater than 4.11 µg/mL with HeLa [6]; 3.45 µg/mL (≈ 12.9 µM) with HeLa [7].

In turn, `NC(=O)c1ncn([C@@H]2O[C@H](CO)[C@@H](O)[C@H]2O)n1` [RIBAVIRIN] showed a CC50 with HeLa [1] of 300 µg/mL (≈ 1230 µM). The concentration for a half-maximal effect (EC50) in the assay with HeLa [2] stood at 20.9 µg/mL (≈ 85.7 µM); in the assay with HeLa [6], 181 µg/mL (≈ 743 µM); in the assay on HeLa [7], 14.4 µg/mL (≈ 59 µM).

In the case of `Cc1cn([C@H]2C[C@H](N=[N+]=[N-])[C@@H](CO)O2)c(=O)[nH]c1=O` [ZIDOVUDINE], the EC50 is 0.0012 µg/mL (≈ 0.00449 µM) with MT4 [3] and 0.01 µg/mL (≈ 0.0374 µM) in the assay on MT4 [5]. This compound displayed a CC50 in the assay on MT4 [4] of 1.64 µg/mL (≈ 6.14 µM).

One may read the CC50 as the concentration that lowers cell viability or growth by half. A low value points to greater toxicity to the cells. The EC50 is the concentration at which the effect is half-maximal.

(Values after ChEMBL document CHEMBL1136289, “Synthesis and biological evaluation of thymine nucleosides fused with 3',4'-tetrahydrofuran ring” (Bioorg Med Chem Lett, 2003).)
